Molecular target: Vascular endothelial growth factor receptor 2 (Homo sapiens, UniProt P35968)
Assay: Inhibition Assay: The object of this assay was to test the inventive compounds for the kinase inhibitory activity in vitro. In this assay, an isotopic labeling method was used to label the gamma phosphate group on ATP. EGFR (including wild type, L858R mutant type and L858R/T790M double mutant type), VEGFR2, ALK, BTK, c-KIT, c-SRC, MET, PDGFRalpha and FLT3 kinases were tested in vitro for the activity inhibition. Staurosporine was used as a reference molecule (or referred to as a positive control). […] The IC50 value can be obtained by the calculation of the inhibitory rates at a series of different concentrations of the tested compounds. 1. Materials: 20mM 3-(N-morpholinyl)propylsulfonic acid (MOPS); 1mM Ethylenediaminetetraacetic acid (EDTA); 0.01% Polyethylene glycol lauryl ether (Brij-35).

Vascular endothelial growth factor receptor 2, sequence (P35968 20-1356 limits assumed, stated change not applied): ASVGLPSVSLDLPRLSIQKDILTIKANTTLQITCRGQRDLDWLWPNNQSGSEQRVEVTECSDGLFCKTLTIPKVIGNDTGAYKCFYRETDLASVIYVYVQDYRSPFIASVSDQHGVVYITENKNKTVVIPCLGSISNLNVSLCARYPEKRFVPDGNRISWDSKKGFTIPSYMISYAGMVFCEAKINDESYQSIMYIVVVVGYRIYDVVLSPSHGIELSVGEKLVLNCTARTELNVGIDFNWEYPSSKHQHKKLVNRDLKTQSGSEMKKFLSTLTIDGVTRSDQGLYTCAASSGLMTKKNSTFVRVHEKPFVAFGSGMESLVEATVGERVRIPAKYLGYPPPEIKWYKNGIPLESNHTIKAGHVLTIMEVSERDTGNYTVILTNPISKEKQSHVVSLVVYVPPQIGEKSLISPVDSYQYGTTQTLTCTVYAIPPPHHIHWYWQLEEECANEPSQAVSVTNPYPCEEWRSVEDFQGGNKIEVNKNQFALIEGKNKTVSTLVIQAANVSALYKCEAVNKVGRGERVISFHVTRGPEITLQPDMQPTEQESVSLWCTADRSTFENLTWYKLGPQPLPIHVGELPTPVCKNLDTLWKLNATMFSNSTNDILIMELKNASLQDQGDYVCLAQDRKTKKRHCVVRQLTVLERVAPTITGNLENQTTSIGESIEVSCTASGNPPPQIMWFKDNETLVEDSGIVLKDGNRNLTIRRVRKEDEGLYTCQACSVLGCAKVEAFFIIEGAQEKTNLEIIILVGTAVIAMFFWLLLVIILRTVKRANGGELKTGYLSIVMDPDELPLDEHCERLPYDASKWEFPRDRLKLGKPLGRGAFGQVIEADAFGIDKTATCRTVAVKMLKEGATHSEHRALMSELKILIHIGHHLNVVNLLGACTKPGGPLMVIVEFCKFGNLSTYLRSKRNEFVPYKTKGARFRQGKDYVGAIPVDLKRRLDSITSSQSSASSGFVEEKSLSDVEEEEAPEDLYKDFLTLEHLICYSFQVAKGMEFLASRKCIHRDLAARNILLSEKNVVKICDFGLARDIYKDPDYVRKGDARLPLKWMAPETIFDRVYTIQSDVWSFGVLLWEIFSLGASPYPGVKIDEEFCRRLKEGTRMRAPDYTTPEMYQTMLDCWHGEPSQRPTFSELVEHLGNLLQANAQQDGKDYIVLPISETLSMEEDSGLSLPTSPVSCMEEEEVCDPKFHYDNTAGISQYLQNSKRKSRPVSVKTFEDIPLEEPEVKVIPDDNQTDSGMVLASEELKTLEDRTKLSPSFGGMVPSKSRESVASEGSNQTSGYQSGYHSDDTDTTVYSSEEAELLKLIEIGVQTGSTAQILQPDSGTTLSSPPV

IC50: > 1000 nM
Compound: CC(C)n1c(Nc2ccccc2)nc2cnc(Nc3ccc(C(=O)NN4CCN(C)CC4)cc3F)nc21
